Results as given in US20230302010A1, “2-((4S)-6-(4-CHLOROPHENYL)-1-METHYL-4H-BENZO[C]ISOXAZOLO[4,5-E]AZEPIN-4-YL)ACETAMIDE FOR TREATING THROMBOCYTHEMIA” (Constellation Pharmaceuticals, Inc., priority 2020, published 2023).
Read-outs that look alike come from different tables or passages of the source. Each block holds one compound with its values, some of them ahead of it.

Assays:
[1] = system: IL6 release from THP-1 acute leukemia cells; test: IL6 release from lipopolysaccharide-treated THP-1 cells; assay type: cell-based; conditions: Homo sapiens; THP-1 cells exposed to lipopolysaccharide, then compound for 16 hours; read-out: IL6 release inhibition IC50
Protocol: Compound 1 was assessed for its ability to suppress the expression of NF-κB target genes in two experiments. In one experiment, THP-1 acute leukemia cell lines were exposed to lipopolysaccharide treatment and then Compound 1 for 16 hours. […] In the other experiment, the ability of Compound 1 to suppress both IL6 and IL10 expression in TMD8 ABC-DLBCL cells was investigated (data on file). TMD8 cells were incubated with DMSO or 1.6 μM Compound 1 for 6 or 24 hours. RNA was then extracted from the cells and quantified using qRT-PCR.

[2] = system: CD34+ cells isolated from healthy donor bone marrow; test: Megakaryocyte differentiation of CD34+ cells (FACS, CD41a expression); assay type: cell-based; conditions: 14 days, FACS (FIG. 2)
Protocol: The effects of Compound 1 on megakaryocyte differentiation and proliferation were evaluated using CD34+ cells isolated from healthy donor bone marrow (data on file). The CD34+ cells were grown in megakaryocyte differentiation serum-free stem cell differentiation base medium with a megakaryocyte-driving cytokine cocktail for 14 days with DMSO or Compound 1 at concentrations ranging from 3 nM to 500 nM. The cells were then stained for CD34 (progenitor marker), CD45 (leukocyte marker) and CD41a (mature megakaryocyte marker) and assessed by FACS for viability and marker expression. CD41a expression and cell size were used as markers of megakaryocyte differentiation. […] The shift from high to low CD41a expression began at approximately 50 nM, with pronounced effects observed at 200 to 500 nM, as shown in FIG. 2.

[3] = system: patients with high-risk ET; conditions: cited from earlier work

IC50 [1]: 69 nM
SMILES: Cc1noc2c1-c1ccccc1C(c1ccc(Cl)cc1)=N[C@H]2CC(N)=O [Compound 1, 2-((4S)-6-(4-chlorophenyl)-1-methyl-4H-benzo[c]isoxazolo[4,5-e]azepin-4-yl)acetamide]
concentration at which shift from high to low CD41a expression began [2]: approximately 50 nM

SMILES: NC(=O)NO [HU, hydroxyurea]
survival from the beginning of treatment ([3]; 14-year retrospective study, 166 high-risk ET patients): 65% | patients who died ([3]; 166 high-risk ET patients treated for a median of 4.5 years, median follow-up of seven years from diagnosis): 23% | 10-year overall survival ([3]; patients who achieved a complete response): 79% | 10-year overall survival ([3]; patients with HU resistance): 26%
